Test results: patent publication US20240254179A1, “Targeting Nuclear Speckles and DNA Speckle Association” (THE TRUSTEES OF THE UNIVERSITY OF PENNSYLVANIA, priority 2023, published 2024)

Key:
HeLa cells = format: cell-based
[1] = system: patient-derived mouse xenograft tumors; test: Speckle signature versus PT2399 sensitivity of patient-derived mouse xenograft ccRCC tumors; format: in vivo
Description: Methods for determining speckle signature and TCGA survival analysis. Four-hundred and forty-six protein genes annotated as “Enhanced”, “Supported”, or “Approved” for subcellular localization within nuclear speckles were identified in The Human Protein Atlas and their upper-quartile normalized RNA expression was extracted from the 30 PanCan TCGA projects that had greater than 50 samples. Principal Component Analysis was then performed on these 446 speckle protein genes. In doing so, each speckle protein gene was assigned a weight (called rotation in the analysis) that was used in the analysis to separate tumor sample along the first Principal Component (PC1). The absolute value of a speckle protein gene PC1 weight thus estimates the contribution of each speckle protein gene to patient variation and the PC1 weight sign, positive or negative, reflects genes that have opposite expression patterns to one another. To compare speckle protein gene expression contributions to patient variation between cancer types, the pairwise Pearson's correlation coefficients of the speckle protein PC1 weights were used. […] With collected ccRCC samples and published drug response studies, speckle scores were calculated using the above formula. […] Then differences in drug responses were calculated using a Fisher's exact test (FIG. 53) or Kaplan Meier statistics (FIG. 54).

ccRCC = ccRCC clinical trial, overall survival by speckle signature, nivolumab versus everolimus; format: in vivo, human; settings: nivolumab arm versus everolimus arm
Description: Without wishing to be bound by theory, it is envisioned that having both RNA- and imaging-based methods for measuring speckle phenotypes will assist in the development of cancer- and patient-specific treatment strategies. As a proof-of-concept for a potential use of nuclear speckle phenotyping, a series of studies was undertaken in which speckle signature was correlated with tumor/patient drug response in available data from a human clinical trial and patient-derived mouse xenograft studies.
Thus, contrasting with HIF-2a inhibition, PD1 inhibition may have a greater impact in individuals with Signature II tumors.
Methods for determining speckle signature and TCGA survival analysis. Four-hundred and forty-six protein genes annotated as “Enhanced”, “Supported”, or “Approved” for subcellular localization within nuclear speckles were identified in The Human Protein Atlas and their upper-quartile normalized RNA expression was extracted from the 30 PanCan TCGA projects that had greater than 50 samples. Principal Component Analysis was then performed on these 446 speckle protein genes. In doing so, each speckle protein gene was assigned a weight (called rotation in the analysis) that was used in the analysis to separate tumor sample along the first Principal Component (PC1). The absolute value of a speckle protein gene PC1 weight thus estimates the contribution of each speckle protein gene to patient variation and the PC1 weight sign, positive or negative, reflects genes that have opposite expression patterns to one another. To compare speckle protein gene expression contributions to patient variation between cancer types, the pairwise Pearson's correlation coefficients of the speckle protein PC1 weights were used. In order to obtain a set of speckle protein genes that consistently contributed to patient variation in many cancer types, the rotation signs were flipped so that the speckle protein gene, SON, was always assigned a negative weight. […] Speckle score was then used to separate samples into groups for Kaplan Meier and gene expression analysis between the two groups. With collected ccRCC samples and published drug response studies, speckle scores were calculated using the above formula. In drug-response data (related to FIG. 52), samples with positive speckle scores were considered speckle Signature I and samples with negative speckle scores were considered speckle Signature II. Then differences in drug responses were calculated using a Fisher's exact test (FIG. 53) or Kaplan Meier statistics (FIG. 54).

| Compound | speckle association of the CCND1 gene locus (HeLa cells) | fraction of Signature II tumors sensitive to PT2399 ([1]; xenograft tumors with negative speckle score (Signature II)) | fraction of Signature I tumors sensitive to PT2399 ([1]; xenograft tumors with positive speckle score (Signature I)) | overall survival, Signature I patients (ccRCC) | overall survival probability, Signature II patients (ccRCC) |
| --- | --- | --- | --- | --- | --- |
| [Cl-].[Cl-].[Co+2] [CoCl2] | increased speckle association of the CCND1 gene locus |  |  |  |  |
| N#Cc1cc(F)cc(Oc2ccc(S(=O)(=O)C(F)F)c3c2CC(F)(F)[C@H]3O)c1 [PT2399] |  | ~30% | ~75% |  |  |
| CO[C@H]1C[C@@H]2CC[C@@H](C)[C@@](O)(O2)C(=O)C(=O)N2CCCC[C@H]2C(=O)O[C@H]([C@H](C)C[C@@H]2CC[C@@H](OCCO)[C@H](OC)C2)CC(=O)[C@H](C)/C=C(\C)[C@@H](O)[C@@H](OC)C(=O)[C@H](C)C[C@H](C)/C=C/C=C/C=C/1C [everolimus] |  |  |  | did not differ in overall survival between the two treatment groups | higher overall survival probability when treated with nivolumab compared to everolimus |
| nivolumab |  |  |  | did not differ in overall survival between the two treatment groups | higher overall survival probability when treated with nivolumab compared to everolimus |
